Assay results from patent publication US20090143285A1, “TARGET PROTEIN AND TARGET GENE FOR DRUG DISCOVERY AND SCREENING METHOD” (REVERSE PROTEOMICS RESEARCH INSTITUTE CO., LTD., priority 2005, published 2009).
Where two headings read alike, the source gives them in different places.

Test system: FLJXXXXX-derived proteins
Test: SEC/MS spin column interaction analysis of FLJXXXXX-derived proteins and various compounds (Tables 30-1 to 30-4)
Type: binding, human
[1] = SEC spin column filtrate, spectral intensity increased with doses of compound and protein

Text: To analyze the interactions between commonly used drugs and proteins expressed from human full-length cDNA clones while keeping both the proteins and the compounds in non-modified, non-immobilized state, size exclusion chromatography (SEC) and mass analysis were used in combination.
The compound-protein mixture prepared in step 1 was subjected to chromatography using an SEC column, the compound and the protein were separated by SEC, and the compound that interacted with the bound compound or protein contained in the protein fraction was analyzed using a mass analyzer.
Protein concentrations were measured using BCA Protein Assay (PIERCE), in consideration of the purity calculated by SDS-PAGE.
Mass analysis was performed using LCQ DECA XP (Thermoelectron) or Q-TOF micro (Micromass), equipped with an ESI probe. The LC pump used was Agilent 1100 (Yokogawa Analytical Systems), and the autosampler used was HTC-PAL (CTC Analytics) equipped with a cooling stacker. The SEC column used was a micro-LC column or a 384-well spin column.
In the 384-well spin column method, Unifilter 100 (Whatman), packed with 10 μL (dry volume) of Bio-Gel P6 (BIO-RAD) and swollen with milliQ water, was used as the SEC column. […] The SEC spin column was mounted on an acetonitrile-aliquoted 384-well U-bottom plate and centrifuged; the SEC spin column filtrate, which is a protein fraction, was recovered in 50% acetonitrile. The protein precipitate produced by the acetonitrile was removed via centrifugation and filtration for deproteinization; the resulting filtrate was concentrated by centrifugal concentration and re-dissolved in 10 μL of 50% methanol to obtain a mass analysis sample. The mobile phase supplied to the mass analyzer was 0.1% formic acid/50% methanol solution in the positive ion mode, and 0.1% ammonia/50% methanol solution in the negative ion mode; these mobile phases were used at a flow rate of 40 μL/min. 2-μL of mass analysis samples were injected using an autosampler at 2-minute intervals; the mass spectral intensity of the compound was measured to retrieve the spectral intensity of the pharmaceutical compound contained in the SEC spin column filtrate (protein fraction eluted from SEC).

Compound	FLJ No of the derived protein with which the compound was judged to exhibit a concentration-dependent interaction [1]	other results
CN1CCCCC1CCN1c2ccccc2Sc2ccc([S+](C)[O-])cc21 (centres unmarked) [mesoridazine]	FLJ11211	
CC1CCCC(C)N1 (stereo not drawn) [nanofin (cis), nanofin]	FLJ42665	
C[C@H]1CC[C@]2(NC1)O[C@H]1C[C@H]3[C@@H]4CC[C@H]5C[C@@H](O)CC[C@]5(C)[C@H]4CC[C@]3(C)[C@H]1[C@@H]2C [tomatidine]	FLJ35353	
CCC(C)C1O[C@]2(C=C[C@@H]1C)C[C@@H]1CC(C/C=C(\C)[C@@H](OC3C[C@H](OC)[C@@H](OC4C[C@H](OC)[C@@H](O)[C@H](C)O4)[C@H](C)O3)[C@@H](C)/C=C/C=C3\COC4[C@H](O)C(C)=CC(C(=O)O1)[C@]34O)O2 (some centres unmarked) [avermectin B1A]	FLJ39553	
CN(C)CCCN1c2ccccc2Sc2ccc(Cl)cc21 [chlorpromazine]	FLJ35353	
c1ccc2c(c1)CCCC2C1=NCCN1 (centres unmarked) [tetrazoline]	FLJ36526	
C[N+]1(C)CCC(=C(c2ccccc2)c2ccccc2)CC1 [diphemanil]	FLJ36526	
CCCCc1oc2ccccc2c1C(=O)c1cc(I)c(OCCN(CC)CC)c(I)c1 [amiodarone]	FLJ37909	
CC(=O)c1ccc2c(c1)N(CCCN(C)C)c1ccccc1S2 [acetopromazine]	FLJ36526	
Cc1cc2c(cc1S(N)(=O)=O)S(=O)(=O)CCC2 [meticrane]	FLJ39553	
CC(N/C(=N\C#N)Nc1ccncc1)C(C)(C)C (centres unmarked) [pinacidil]	FLJ35353	
COc1cc2c(cc1OC)-c1cc3ccc(OC)c(OC)c3c[n+]1CC2 [palmatine]	FLJ39553	
CC(C)[C@@]1(NC(=O)[C@@H]2C[C@@H]3c4cccc5[nH]cc(c45)C[C@H]3N(C)C2)O[C@@]2(O)[C@@H]3CCCN3C(=O)[C@H](Cc3ccccc3)N2C1=O [dihydroergocristine]	FLJ37909	
COc1ccc2c3c([nH]c2c1)C(C)=NCC3 [harmaline]	FLJ39553	
COc1c(O)cc2c(c1O)[C@@H]1O[C@H](CO)[C@@H](O)[C@H](O)[C@H]1OC2=O [bergenin]	FLJ39553	
O=c1cc(-c2ccc(O)cc2)oc2cc(O)cc(O)c12 [apigenin]	FLJ39553	
celestine blue	FLJ39553	
CNCCCC1c2ccccc2C=Cc2ccccc21 [protriptyline.]	FLJ20972	
CC(=O)[C@@]1(O)CC[C@H]2[C@@H]3CCC4=CC(=O)CC[C@]4(C)[C@H]3CC[C@@]21C [hydroxyprogesterone]	FLJ37909	
Cc1cnc(C(=O)NCCc2ccc(S(=O)(=O)NC(=O)NC3CCCCC3)cc2)cn1 [glipizide]	FLJ35353	
CC#C[C@]1(O)CC[C@H]2[C@@H]3CCC4=CC(=O)CCC4=C3[C@@H](c3ccc(N(C)C)cc3)C[C@@]21C [mifepristone]	FLJ22317	
CCCCC[C@](C)(O)/C=C/[C@@H]1[C@@H](C/C=C\CCCC(=O)O)[C@@H](O)C[C@H]1O [carboprost]	FLJ39553	
NCC[C@H](O)C(=O)N[C@@H]1C[C@H](N)[C@@H](O[C@H]2O[C@H](CN)[C@@H](O)[C@H](O)[C@H]2O)[C@H](O)[C@H]1O[C@H]1O[C@H](CO)[C@@H](O)[C@H](N)[C@H]1O [amikacin]	FLJ37909	
CC1CCc2cc(F)cc3c(=O)c(C(=O)O)cn1c23 (centres unmarked) [flumequine]	FLJ38531	
CN(C(=O)CN(CCO)CC(=O)N(C)C(C)(C)Cc1ccccc1)C(C)(C)Cc1ccccc1 [oxethazaine]	FLJ37909	
NCc1ccc(S(N)(=O)=O)cc1 [mafenide]	FLJ21841	
CCOC(=O)C1N=C(c2ccccc2F)c2cc(Cl)ccc2NC1=O (centres unmarked) [ethyl loflazepate]	FLJ35353	
CC(=O)CCCCn1c(=O)c2c(ncn2C)n(C)c1=O [pentoxifylline]	FLJ35353	

Compound	FLJ No of the derived protein with which the compound was judged to exhibit a concentration-dependent interaction [1]	other results
COc1ccc2[nH]c3c(c2c1)CCN=C3C [methoxy-6-harmalan]	FLJ39553	
COC(=O)[C@H]1[C@H]2C[C@@H]3c4[nH]c5cc(OC)ccc5c4CCN3C[C@H]2C[C@@H](OC(=O)/C=C/c2cc(OC)c(OC)c(OC)c2)[C@@H]1OC [rescinnamine]	FLJ37909	
CCn1cc(C(=O)O)c(=O)c2cc3c(cc21)OCO3 [oxolinic acid]	FLJ37909	
CN1CCCC(CC2c3ccccc3Sc3ccccc32)C1 (centres unmarked) [methixene]	FLJ35353	
Cc1c(N(C)CS(=O)(=O)[O-])c(=O)n(-c2ccccc2)n1C.[Na+] [dipyrone]	FLJ35353	
NCCCC[C@H](N[C@@H](CCc1ccccc1)C(=O)O)C(=O)N1CCC[C@H]1C(=O)O [lisinopril]	FLJ40760	
C[C@@H]1C[C@H]2[C@@H]3C[C@H](F)C4=CC(=O)C=C[C@]4(C)[C@H]3[C@@H](O)C[C@]2(C)[C@@]1(O)C(=O)CO [paramethasone]	FLJ39553	
CN1CCN(CC/C=C2/c3ccccc3Sc3ccc(S(=O)(=O)N(C)C)cc32)CC1 [thiothixene (cis), thiothixene]	FLJ37909	FLJ No of the derived protein with which the compound was judged to exhibit a concentration-dependent interaction (SEC spin column filtrate, spectral intensity increased with doses of compound and protein, listed as Thiothixene (cis)): FLJ35353
Cc1cccc(C)c1NC(=O)CN1CCN(CCCC(c2ccc(F)cc2)c2ccc(F)cc2)CC1 [lidoflazine]	FLJ37909	
CN1C(=O)CC(=O)N(c2ccccc2)c2cc(Cl)ccc21 [clobazam]	FLJ35353	
CN1C[C@H](CNC(=O)OCc2ccccc2)C[C@@H]2c3cccc4c3c(cn4C)C[C@H]21 [metergoline]	FLJ37909	
CC(=O)O[C@H]1C(=O)[C@@]2(C)[C@H]([C@H](OC(=O)c3ccccc3)[C@]3(O)C[C@H](OC(=O)[C@H](O)[C@@H](NC(=O)c4ccccc4)c4ccccc4)C(C)=C1C3(C)C)[C@]1(OC(C)=O)CO[C@@H]1C[C@@H]2O [paclitaxel]	FLJ39553	
CC(C)C[C@H]1C(=O)N2CCC[C@H]2[C@]2(O)O[C@](NC(=O)[C@@H]3C=C4c5cccc6[nH]cc(c56)C[C@H]4N(C)C3)(C(C)C)C(=O)N12 [α-ergocryptine]	FLJ35353	
[H]/N=C(\N/C(=N/[H])NCCCCCCNC(=N)NC(=N)Nc1ccc(Cl)cc1)Nc1ccc(Cl)cc1 [chlorhexidine]	FLJ37909	
CCN(CC)CCOc1ccc(C(=C(Cl)c2ccccc2)c2ccccc2)cc1 [clomiphene]	FLJ37909	
CC(C)/N=c1\cc2n(-c3ccc(Cl)cc3)c3ccccc3nc-2cc1Nc1ccc(Cl)cc1 [clofazimine]	FLJ35353	
CCCSc1ccc2nc(NC(=O)OC)[nH]c2c1 [albendazole]		FLJ No of the derived protein with which the compound was judged to exhibit a concentration-dependent interaction: FLJ35353
eburnamonine	FLJ11211	
COc1cc2nc(N3CCN(C(=O)C4COc5ccccc5O4)CC3)nc(N)c2cc1OC (centres unmarked) [doxazosin]	FLJ37909	
CC[C@H]1CN2CCc3cc(OC)c(OC)cc3[C@@H]2C[C@@H]1C[C@H]1NCCc2cc(OC)c(OC)cc21 [emetine]	FLJ37909	
CCOc1ccc2ccccc2c1C(=O)N[C@@H]1C(=O)N2[C@@H]1SC(C)(C)[C@@H]2C(=O)O [nafcillin]	FLJ39553	
COc1cccc(CCc2ccccc2OCC(CN(C)C)OC(=O)CCC(=O)O)c1 (centres unmarked) [sarpogrelate]	FLJ39553	
CN(C)[C@@H]1C(O)=C(C(N)=O)C(=O)[C@@]2(O)C(O)=C3C(=O)c4c(O)ccc(Cl)c4[C@@H](O)[C@H]3C[C@@H]12 [demeclocycline]	FLJ39553	
CCN1C(=O)NC(c2ccccc2)C1=O (centres unmarked) [ethotoin]	FLJ38531	
COc1cc(NS(=O)(=O)c2ccc(N)cc2)nc(OC)n1 [sulfadimethoxine]	FLJ39553	
C[C@@H]1CC[C@@]2(NC1)O[C@H]1C[C@H]3[C@@H]4CC=C5C[C@@H](O)CC[C@]5(C)[C@H]4CC[C@]3(C)[C@H]1[C@@H]2C [solasodine]	FLJ35353	
O=C(O)CCCc1ccc(N(CCCl)CCCl)cc1 [chlorambucil]	FLJ23466	
